Experimental data reported in patent US7449494B1, “Polymeric skin moisturizing compounds” (SurfaTech Corporation, priority 2004, dated 2008).

Test system: rough dry skin
Experiment: Skin moisturization evaluation: appearance of treated skin under the dissection microscope
Format: in vivo
Conditions: 5% solution applied to skin; scale of 1 to 5, 1 being poor and 5 being best
Text: The effect of moisturization can be measured by the appearance of the skin when treated. Untreated skin that is in need of moisturization is rough, scaly and dry looking under the dissection microscope. The application of the moisturization solution to the skin and its effect upon minimizing roughness, scaling and dry appearance is a good measure of moisturization. We performed such an evaluation and rated the performance of a scale of 1 to 5. 1 being poor and 5 being best.

| Compound | Rating (moisturization: minimizing roughness, scaling and dry appearance) |
| --- | --- |
| C[N+](C)(C)CCO [Choline] | 4 |
| OCC(O)CO [Glycerin] | 2 |
